Where two headings read alike, the source gives them in different places.
Tests used:
[1] = test system: human embryonic stem cells (hESC)
Experimental: FIG. 2 is a panel showing that the addition of NaOc.3H2O to hPSC culture medium rescued human embryonic stem cell cultures, improved attachment/spreading, and decreased cell death. […] (2E) Comparison of hESC attachment in mTeSR1 or mTeSR1+10 mM NaOAc.3H2O, (2F) Spreading of colonies in mTeSR1 only is poor; colonies are elevated, not flat, (2G) Spreading of colonies in mTeSR1+10 mM NaOAc.3H2O is improved; colonies are flatter and spread faster. (2H-2M) StemCellQC™ time-lapse video bioinformatics analysis of colonies grown in mTeSR1 only or mTeSR1+10 mM NaOAc. Colonies cultured in mTeSR1+10 mM NaOAc grow faster (2H and 2I), are rounder (normal morphology) (2J), have better motility (2K and 2L), and have fewer dead cells (2M).
This is very important and may be a factor in preventing unwanted differentiation. FIGS. 2H-M show video bioinformatics analysis of live hESC growing in vitro. This analysis was done on time-lapse images of living cultures and allows quantitative comparison between cells grown in different media.

hESC colonies = test system: hESC colonies
Experimental: Colonies were incubated in mTeSR or mTeSR plus varying concentrations of NaOAc.3H2O.

hESC = conditions: incubated in mTeSR plus NaOAc.3H2O, then transferred to differentiation medium
Experimental: (6A) Spontaneous differentiation of hESC incubated in mTeSR only then transferred to differentiation medium. […] (6B) hESC incubated in mTeSR plus NaOAc.3H2O, then transferred to differentiation medium.
These colonies were labeled with an antibody to Pax6, a marker for ectodermal differentiation.

[2] = test system: human embryonic stem cells (hESC); remark: listed apart in the source
Source text: These are hallmarks of healthy pluripotent human embryonic stem cells (hESC) in culture. […] These are not normal pluripotent stem cell morphologies and are observed when colonies begin to differentiate.

hPSC colonies = conditions: Essential-8 + 10 mM NaOAc.3H2O vs Essential-8 alone
H9 hESC = conditions: H9 colony from another lab, mTeSR1 + 10 mM NaOAc.3H2O, 24 hours
[3] = mTeSR1 + 10 mM NaOAc vs mTeSR1 only

CC(=O)[O-].O.O.O.[Na+] [NaOAc.3H2O, sodium acetate trihydrate] was tested, and the “brightness to area ratio (measurement of cell death)” value [1, 3] was “low brightness to area ratio”, the cell death [1, 3] was “Fewer cells died” and the colony motility [1, 3] was “Motility was greater”. The growth rate [1, 3] was “much faster”, the “solidity (colony roundness)” value [1, 3] was “closer to 1” and the “spreading of hESC colonies on the substrate” value ([1]; mTeSR1 + 10 mM NaOAc.3H2O vs mTeSR1) was “spread faster on the substrate”. For the same compound, the “attachment of cells to their substrate” value ([1]; mTeSR1 + 10 mM NaOAc.3H2O vs mTeSR1, modest but significantly different) was “enhanced the attachment of cells to their substrate”, the “Oct 4 fluorescence, concentration comparison” value (hESC colonies; 10 μM concentration) was “Fluorescence was strongest” and the Oct4A staining (hESC colonies; mTeSR1 + 5 mM NaOAc) was “Positive Oct4A staining”. The Oct4A staining (hESC colonies; mTeSR1 + 10 mM NaOAc) was “Positive Oct4A staining”, the Sox2 staining (hESC colonies; mTeSR1 + 10 mM NaOAc) was “Positive Sox2 staining” and the “Oct 4 labeling (biomarker for pluripotency)” value (hESC colonies; mTeSR plus varying concentrations of NaOAc.3H2O) was “bright labeling of Oct 4”. The “Pax6 staining (ectodermal marker)” value (hESC) was “stained positively for Pax6”, the colony morphology ([2]; mTeSR + 1 mM NaOAc.3H2O) was “little effect on colony morphology” and the colony morphology ([2]; mTeSR + 5 or 10 mM NaOAc.3H2O) was “colony morphology was restored to normal”. For the same compound, the “passages without differentiation of colonies” value ([2]; passaged in mTeSR with the NaOAc.3H2O supplement) was “over 20 times”, the colony morphology (hPSC colonies) was “improved morphology” and the colony morphology (H9 hESC) was “round morphology with smooth edges”.
